Assay results reported in patent EP0007648A1, “New acylureas with pharmaceutical activity, the process for their preparation, and pharmaceutical compositions which contain them” (Investigacion Tecnica Y Aplicada, S.A., priority 1978, dated 1980).

Columns and labels:
Platelet aggregation = experiment: Anti platelet aggregation activity "ex vivo" (Born), ADP-induced aggregation after administration by gastric catheter; assay type: in vivo, rats, Sprage Dawley; conditions: for inhibition at 200 mg/kg: Dose 200 mg/kg p.o., rats, ADP-induced, 5 hours after administration; for anti platelet aggregation activity (in words): compared with acetilsalicilic acid given in a double dose
Description: Platelet aggregation is induced by ADP (adenosindiphosphate) and measured in an aggregometer(Bryston) connected to a model R Omniscriber recorder.

lactescence of the serum = experiment: Hyperlipaemia activity: lactescence of the serum after oral olive oil; assay type: in vivo; conditions: for Activity; Hyper Lipaemia (%): Dose 200 mg/kg orally, suspended in 10 ml/kg of olive oil, serum lactescence 6 hours after administration; for hyperlipaemia activity (in words): against clofibrate
Description: For the determination of the hyperlipaemia activity the products were administered orally suspended in 10 ml/kg of olive oil evaluating the lactescence of the serum 6 hours after administration.

in vivo = conditions: mouse, ip, NMRI male mice, suspended in Tween 80 at 1% plus CMC at 2% in physiological serum, read-out: LD 50 mg/kg. i.p. NMRI mouse
Description: The products were administered via intraperitoneal, suspended in Tween 80 at 1% plus CMC at 2% in physiological serum.
The reference standard used was phenolbutazone.

[1] = tested on: hypercholesterolaemia induced by the administration of Triton WR 1339; experiment: Hypercholesterolaemia induced by Triton WR 1339 (Garattini et al.); assay type: in vivo; conditions: among the products examined
Description: To determine the hypercholesterolaemia activity tests have been conducted with hypercholesterolaemia induced by the administration of Triton WR 1339 in accordance with S. Garattini C.Morpurgo and Passerini (Experiment 12 (1956)347). The results obtained using clofibrate (ethyl […] of p-chlorophenoxyisobutiric acid), as a reference standard are shown in Table II below.

[2] = Rattus norvegicus, Platelet, po

Row | SMILES | inhibition at 400 mg/kg (Platelet aggregation; Rattus norvegicus, Platelet, po, 5 h, read-out: Anti platelet aggregation p.o. % inhibition (5 hours)) [%] | Activity; Hyper Lipaemia (%) (lactescence of the serum) | LD50 (in vivo) [mg/kg] | inhibition at 200 mg/kg (Platelet aggregation; [2]) [%] | hyperlipaemia activity (in words) (lactescence of the serum) | hypercholesterolaemia activity (in words) [1] | anti platelet aggregation activity (in words) (Platelet aggregation)
1 | CC(=O)Oc1ccccc1C(=O)O [Acelylsalicilic acid, reference compound] | 86.3 | – | – | – | – | – | –
2 | CCOC(=O)C(C)(C)Oc1ccc(Cl)cc1 [Clofibrate, ethyl esther of p-chlorophenoxyisobutiric acid, reference compound] | – | 22,8% | – | – | – | – | –
3 | O=C(COc1ccc(Cl)cc1)NC(=O)NCN1CCOCC1 [ITA-372, N-(p-chlorophenoxy)acetyl N' -morpholinomethylurea] | – | – | 300 | 8.1 | – | – | –
4 | O=C(NCN1CCOCC1)NC(=O)C(Oc1ccc(Cl)cc1)Oc1ccc(Cl)cc1 [ITA-373, N-[bis(p-chiorophenoxy)] acetyl -N'-morpholinomethylurea] | – | – | 1700 | 11.9 | – | – | –
5 | CC(C)(Oc1ccc(C(=O)c2ccc(Cl)cc2)cc1)C(=O)NC(N)=O [ITA-374, N-2-[p-(p' -chlorobenzoil)phenoxy]-2-methylpropionylurea] | – | 28,2% | > 3000 | 16.1 | – | – | –
6 | CC(C)(Oc1ccc(C(=O)c2ccc(Cl)cc2)cc1)C(=O)NC(=O)NCN1CCOCC1 [ITA-375, N-2-[p-(p'-chlorobenzoil)phenoxy]-2-methylpropionyl-N'-morpholine methylurea] | – | 41,1% | 950 | 68.5 | stand out in this activity | stands out for its efficacity | stand out in their anti platelet aggregation activity
7 | CC(C)Cc1ccc(C(C)C(=O)NC(=O)NCN2CCOCC2)cc1 (stereo not shown) [ITA-376, N-2-(p-isobutylphenyl) propionyl-N'-morpholinomethylurea] | – | 1,3% | 1800 | 12.7 | – | – | –
8 | COc1ccc2c(c1)c(CC(=O)NC(=O)NCN1CCOCC1)c(C)n2C(=O)c1ccc(Cl)cc1 [ITA-377, N-[1-(p-chiorobenzoil) -2-methyl-5-methoxyindol-3-il]acetyl-N' -morpholinomethylurea] | – | 12,6% | > 3000 | 5.3 | – | – | –
9 | O=C(NCN1CCOCC1)NC(=O)c1cccnc1 [ITA-378, N-nicotinoil-N'-morpholino methylurea] | – | 54,7% | 1700 | 81.9 | stand out in this activity | – | stand out in their anti platelet aggregation activity
10 | COc1ccccc1C(=O)NC(=O)NCN1CCOCC1 [ITA-418, N-(2-methoxybenzoil)-N'-morpholinomethylurea] | – | – | 1100 | 68 | – | – | –
